Legend:
PI3Kalpha = PI3Kalpha (Homo sapiens (Human), UniProt P42336); assay: HTRF PI3K biochemical assay, alpha isoform (selectivity versus delta); settings: relative ratio PI3K-alpha IC50 value / PI3K-delta IC50 value
Description: (§1) HTRF PI3K Biochemical Assay to Measure Intrinsic Potency of Compound Inhibitors
(§2) The PI3-Kinase biochemical assays were developed to measure the intrinsic potency and compound dependent inhibition of the alpha, beta, delta, and gamma PI3K isoform enzymes. This assay was developed and further optimized from a kit produced by Upstate (Millipore catalog #33-047) (Millipore Sigma, Billerica Mass., USA) and has been configured for high throughput screening (HTS) and structure-activity relationship (SAR) screening. Briefly, this procedure exploits the exquisite specificity and high affinity binding of […] phosphatidyl(3,4,5)triphosphate (PIP3) to the GRP1 pleckstrin homology (PH) domain to generate the signal. In the absence of PIP3, an HTRF (Homogeneous Time-Resolved Fluorescence energy transfer) complex is formed consisting of europium (u)-labeled anti-GST, GST tagged GRP1-PH domain, biotin-PIP3 (biotinylated-PIP3) and streptavidin conjugated APC (Allophycocyanin). The native PIP3 produced by PI3-Kinase activity disrupts in a competitive manner the biotin-PIP3 from the pleckstrin homology (PH) domain, resulting in the loss of energy transfer (HTRF complex) and a decrease in the signal. The format of this assay is the same for all 4 isoforms of PI3K; the differences lie in the concentration of enzyme used to achieve robust assay window. The alpha, beta, and delta assays are run at 0.5, 1, and 0.3 nM enzymes and the gamma assay is run at 5 nM enzyme. The ATP concentration is 100 uM in the alpha, beta, and delta assays and 50 uM adenosine triphosphate (ATP) in the gamma assay. All reactions are run at 5 uM PIP2.
(§3) Compounds are serially diluted (3-fold in 100% DMSO) across a 384-well polypropylene source plated from column 3 to column 12 and column 13 to column 22, to yield 10 concentration dose response for each test compound. Columns 1, 2, 23 and 24 contain either only DMSO or pharmacological known control inhibitor. Once titrations are made, 2.5 nL of the compounds on 384 well plates are reformatted and transferred by acoustic dispense in quadruplicates to a 1536 assay plate (Greiner) to assay across all four PI3K isoform enzymes.
(§4) The PI3-Kinase biochemical assay was optimized using the HTRF kit provided by Upstate (Millipore). The assay kit contains six reagents: 1) 4× Reaction Buffer; 2) native PIP2 (substrate); 3) Stop (EDTA); 4) Detection Mix A (Streptavidin-APC); 5) Detection Mix B (Eu-labeled Anti-GST plus GST-tagged PH-domain); 6) Detection Mix C. In addition, the following items were obtained or purchased; PI3Kinase (catalog #'s alpha 14-602, beta 14-603, gamma 14-558 and delta 14-604 from Upstate Biotechnology now EMD Millipore, Mahopac, N.Y., USA), dithiothreitol (Sigma-Aldrich Corp. (St. Louis, Mo., USA) Catalog #D-5545), Adenosine-5′ triphosphate (InVitrogen (Waltham, Mass., USA), Cat#AS001A), native PIP3 (PI(3,4,5)P3, diC8, H^+, CELLSIGNALS, INC., (Columbus, Ohio, USA) Cat #907) DMSO ((Sigma-Aldrich Corp. (St. Louis, Mo., USA) Catalog #472301).
(§5) PI3Kinase Reaction Buffer is prepared by dilution the stock 1:4 with de-ionized water. DTT (DL-Dithiothreitol), phosphatidylinositol 4,5-bisphosphate (PIP2) and Biotin-PIP3 were added to 1536 assay plate at a final concentration of 5 mM, […] and 25 nM on the day of use. Enzyme addition and compound pre-incubation are initiated by the addition of 1.25 ul of PI3K (at twice its final concentration) in the 1× reaction buffer to all wells using a BioRaptr™ (Beckman Coulter, Waltham, Mass. USA). Plates are incubated at room temperature for 15 minutes. Reactions are initiated by addition of 1.25 ul of 2× substrate solution (PIP2 and ATP in 1× reaction buffer) using BioRaptr™. Plates are incubated in humidified chamber at room temperature for one hour. Reactions are quenched by addition of 0.625 uL of stop solution to all wells using the BioRaptr™. […]

PI3Kdelta = PI3Kdelta (Homo sapiens (Human), UniProt O00329); assay: HTRF PI3K biochemical assay, delta isoform; settings: 0.3 nM enzyme, 100 uM ATP, 5 uM PIP2, form screened per table
Description: as §1, §2, §3, §4, §5

Chain of PI3Kalpha (P42336 whole entry, canonical isoform): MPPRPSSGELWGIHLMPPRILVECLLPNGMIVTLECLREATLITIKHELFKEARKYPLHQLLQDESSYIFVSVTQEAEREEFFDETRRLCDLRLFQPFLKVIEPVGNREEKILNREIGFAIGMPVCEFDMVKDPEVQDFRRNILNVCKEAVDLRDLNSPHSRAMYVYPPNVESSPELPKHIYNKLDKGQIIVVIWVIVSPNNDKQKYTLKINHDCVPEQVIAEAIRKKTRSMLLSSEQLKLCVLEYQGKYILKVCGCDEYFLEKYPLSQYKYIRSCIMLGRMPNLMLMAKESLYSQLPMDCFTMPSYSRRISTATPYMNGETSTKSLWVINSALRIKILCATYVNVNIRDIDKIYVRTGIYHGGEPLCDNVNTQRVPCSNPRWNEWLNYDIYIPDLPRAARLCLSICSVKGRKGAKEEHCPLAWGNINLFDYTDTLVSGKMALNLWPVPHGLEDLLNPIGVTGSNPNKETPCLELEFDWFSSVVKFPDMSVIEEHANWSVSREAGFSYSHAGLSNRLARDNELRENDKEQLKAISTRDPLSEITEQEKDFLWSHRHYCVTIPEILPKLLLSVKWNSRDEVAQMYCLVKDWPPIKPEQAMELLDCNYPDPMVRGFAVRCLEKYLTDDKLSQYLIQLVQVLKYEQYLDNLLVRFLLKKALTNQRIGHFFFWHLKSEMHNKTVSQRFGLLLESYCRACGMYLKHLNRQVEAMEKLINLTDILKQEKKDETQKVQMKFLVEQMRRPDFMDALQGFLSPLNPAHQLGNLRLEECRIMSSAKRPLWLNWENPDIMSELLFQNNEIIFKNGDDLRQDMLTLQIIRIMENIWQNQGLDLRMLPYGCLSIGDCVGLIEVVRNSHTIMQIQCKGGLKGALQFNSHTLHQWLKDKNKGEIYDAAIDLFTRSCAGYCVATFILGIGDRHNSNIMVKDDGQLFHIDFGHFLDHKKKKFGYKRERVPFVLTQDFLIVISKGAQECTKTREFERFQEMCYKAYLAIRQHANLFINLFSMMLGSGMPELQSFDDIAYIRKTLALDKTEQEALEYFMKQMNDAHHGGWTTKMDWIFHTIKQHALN
Chain of PI3Kalpha (P27986 whole entry partner, canonical isoform): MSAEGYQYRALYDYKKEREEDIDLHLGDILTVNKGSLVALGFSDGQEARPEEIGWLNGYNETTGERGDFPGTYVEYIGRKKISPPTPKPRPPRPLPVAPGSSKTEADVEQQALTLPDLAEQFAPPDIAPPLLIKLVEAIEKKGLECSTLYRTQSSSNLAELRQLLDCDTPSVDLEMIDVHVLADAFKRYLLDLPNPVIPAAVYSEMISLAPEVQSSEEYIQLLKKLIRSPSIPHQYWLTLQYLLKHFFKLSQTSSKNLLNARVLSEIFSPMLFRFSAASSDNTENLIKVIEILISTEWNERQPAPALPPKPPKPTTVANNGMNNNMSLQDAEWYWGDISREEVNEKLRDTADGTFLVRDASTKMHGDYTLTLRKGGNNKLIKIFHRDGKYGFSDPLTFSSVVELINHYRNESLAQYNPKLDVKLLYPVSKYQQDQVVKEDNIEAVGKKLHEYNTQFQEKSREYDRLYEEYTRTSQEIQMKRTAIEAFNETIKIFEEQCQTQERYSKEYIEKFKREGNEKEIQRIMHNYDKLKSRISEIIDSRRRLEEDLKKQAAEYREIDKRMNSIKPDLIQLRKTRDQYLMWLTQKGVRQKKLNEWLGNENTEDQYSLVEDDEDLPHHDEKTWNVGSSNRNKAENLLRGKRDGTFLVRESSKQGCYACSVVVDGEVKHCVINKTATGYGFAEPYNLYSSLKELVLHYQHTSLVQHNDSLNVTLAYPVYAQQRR
Chain of PI3Kdelta (O00329 whole entry, canonical isoform): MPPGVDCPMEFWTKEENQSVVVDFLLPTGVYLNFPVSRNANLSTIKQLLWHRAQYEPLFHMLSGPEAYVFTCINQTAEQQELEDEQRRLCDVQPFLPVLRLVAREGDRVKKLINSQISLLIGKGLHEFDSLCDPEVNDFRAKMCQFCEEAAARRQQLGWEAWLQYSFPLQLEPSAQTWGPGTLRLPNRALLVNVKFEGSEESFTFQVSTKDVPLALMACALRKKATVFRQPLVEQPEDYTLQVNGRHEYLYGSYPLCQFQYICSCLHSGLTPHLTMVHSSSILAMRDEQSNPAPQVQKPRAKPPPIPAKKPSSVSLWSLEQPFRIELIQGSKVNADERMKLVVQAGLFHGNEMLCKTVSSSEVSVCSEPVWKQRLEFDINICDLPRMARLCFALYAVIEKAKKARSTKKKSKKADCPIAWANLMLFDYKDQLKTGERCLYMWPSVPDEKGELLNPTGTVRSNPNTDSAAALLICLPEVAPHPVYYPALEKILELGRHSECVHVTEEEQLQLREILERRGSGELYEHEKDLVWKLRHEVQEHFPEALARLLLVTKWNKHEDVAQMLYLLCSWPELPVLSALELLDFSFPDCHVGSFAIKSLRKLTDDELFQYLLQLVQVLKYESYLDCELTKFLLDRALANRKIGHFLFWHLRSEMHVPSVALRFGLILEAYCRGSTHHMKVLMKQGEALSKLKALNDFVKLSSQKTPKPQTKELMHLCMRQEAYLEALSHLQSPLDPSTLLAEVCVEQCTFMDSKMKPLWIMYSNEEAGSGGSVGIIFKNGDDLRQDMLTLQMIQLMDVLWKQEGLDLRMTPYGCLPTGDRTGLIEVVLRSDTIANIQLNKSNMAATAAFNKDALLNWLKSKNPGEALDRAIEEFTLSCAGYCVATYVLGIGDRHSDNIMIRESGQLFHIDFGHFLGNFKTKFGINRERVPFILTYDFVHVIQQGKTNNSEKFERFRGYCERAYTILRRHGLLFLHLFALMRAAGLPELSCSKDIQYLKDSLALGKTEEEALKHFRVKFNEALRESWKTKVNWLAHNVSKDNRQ
Chain of PI3Kdelta (P27986 whole entry partner, canonical isoform): as the sequence (P27986 whole entry partner, canonical isoform) above

Compound | Selectivity versus PI3Kalpha (PI3Kalpha) | IC50 (PI3Kdelta) [nM]
N#Cc1cnc(-c2cccc3[nH]ncc23)nc1N1C[C@@H]2CC1CN2c1cccc(F)c1 (stereo in doubt) [Compound 1-20, 4-[(1R,4S)-5-(3-fluorophenyl)-2,5-diazabicyclo[2.2.1]hept-2-yl]-2-(1H-indazol-4-yl)pyrimidine-5-carbonitrile] | 9 | 200
C#Cc1cnc(N2CCN(C(=O)C3CC3)[C@H](C)C2)nc1-c1cnn(C)c1 [Compound 5-9, 2-[(3R)-4-(cyclopropylcarbonyl)-3-methylpiperazin-1-yl]-5-ethynyl-4-(1-methyl-1H-pyrazol-4-yl)pyrimidine] | >10 | 50
N#Cc1cnc(-c2cnc3[nH]ccc3c2)nc1N1C[C@@H]2CC1CN2c1cccc(F)c1 (stereo in doubt) [Compound 1-18, 4-[(1R,4S)-5-(3-fluorophenyl)-2,5-diazabicyclo[2.2.1]hept-2-yl]-2-(1H-pyrrolo[2,3-b]pyridin-5-yl)pyrimidine-5-carbonitrile] | 8 | 920
Cn1cc(-c2ncc(C#N)c(N3CC4C[C@H]3CN4S(=O)(=O)C3CCCC3)n2)cn1 (stereo in doubt) [Compound 2-15, 4-[(1S,4R)-5-(cyclopentylsulfonyl)-2,5-diazabicyclo[2.2.1]hept-2-yl]-2-(1-methyl-1H-pyrazol-4-yl)pyrimidine-5-carbonitrile] | >10 | 650
C[C@@H]1CN(c2nc(-c3cnn(C)c3)ncc2C#N)CCN1C(=O)C1(C)CC1 [Compound 4-4, 4-{(3R)-3-methyl-4-[(1-methylcyclopropyl)carbonyl]piperazin-1-yl}-2-(1-methyl-1H-pyrazol-4-yl)pyrimidine-5-carbonitrile] | >10 | 1100
C[C@@H]1CN(c2ncc(C(F)F)c(-c3cnn(C)c3)n2)CCN1C(=O)C1CC1 [Compound 5-11, 2-[(3R)-4-(cyclopropylcarbonyl)-3-methylpiperazin-1-yl]-5-(difluoromethyl)-4-(1-methyl-1H-pyrazol-4-yl)pyrimidine] | >10 | 370
COCC1(C(=O)N2C[C@@H]3CC2CN3c2nc(-c3cnn(C)c3)ncc2C#N)CC1 (stereo in doubt) [Compound 2-8, 4-[(1S,4R)-5-{[1-(methoxymethyl)cyclopropyl]carbonyl}-2,5-diazabicyclo[2.2.1]hept-2-yl]-2-(1-methyl-1H-pyrazol-4-yl)pyrimidine-5-carbonitrile] | >10 | 270

The next lines start with the values.

Selectivity versus PI3Kalpha (PI3Kalpha) | IC50 (PI3Kdelta) [nM] | Compound
>10 | 130 | C[C@@H]1CN(c2nc(-c3cnn(C)c3)nc(N)c2C#N)CCN1C(=O)C1CC1 [Compound 6-1, 4-amino-6-[(3R)-4-(cyclopropylcarbonyl)-3-methylpiperazin-1-yl]-2-(1-methyl-1H-pyrazol-4-yl)pyrimidine-5-carbonitrile]
>10 | 220 | CCc1nc(-c2cnn(C)c2)nc(N2CCN(C(=O)C3CC3)[C@H](C)C2)c1C#N [Compound 6-6, 4-[(3R)-4-(cyclopropylcarbonyl)-3-methylpiperazin-1-yl]-6-ethyl-2-(1-methyl-1H-pyrazol-4-yl)pyrimidine-5-carbonitrile]
>10 | 330 | C[C@@H]1CN(c2nc(-c3cnn(C(F)F)c3)ncc2C#N)CCN1C(=O)C1CC1 [Compound 6-30, 4-[(3R)-4-(cyclopropylcarbonyl)-3-methylpiperazin-1-yl]-2-[1-(difluoromethyl)-1H-pyrazol-4-yl]pyrimidine-5-carbonitrile]
>10 | 30 | C[C@@H]1CN(c2nc(Cl)c(C#N)c(-c3cnn(C)c3)n2)CCN1C(=O)C1CC1 [Compound 6-9, 4-chloro-2-[(3R)-4-(cyclopropylcarbonyl)-3-methylpiperazin-1-yl]-6-(1-methyl-1H-pyrazol-4-yl)pyrimidine-5-carbonitrile]

From US11230547B2, “Purine inhibitors of human phosphatidylinositol 3-kinase delta” (Merck Sharp & Dohme Corp., priority 2017, dated 2022)
